Assay results published in patent publication US20170283440A1, “CARM1 INHIBITORS AND USES THEREOF” (Epizyme, Inc., priority 2014, published 2017).
Where two headings read alike, the source gives them in different places.

Key:
Human CARM1 (PRMT4) = target: T1, Human CARM1 (PRMT4) (Homo sapiens, UniProt Q86X55); assay: CARM1 enzyme assay on peptide substrate (3H-SAM Flashplate); assay type: biochemical; details: CARM1 0.25 nM, 3H-SAM 30 nM, peptide 250 nM; read-out: Biochem IC50
T1 construct: Flag-CARM1-His was eluted with 200 ug/ml FLAG peptide in buffer A; made in house; host or cells: HEK 293F cells infected with recombinant baculovirus (pFastBacMam)
Excerpt: S-adenosylmethionine (SAM), S-adenosylhomocysteine (SAH), bicine, Tween20, dimethylsulfoxide (DMSO), bovine skin gelatin (BSG), sodium butyrate and Tris(2-carboxyethyl)phosphine hydrochloride solution (TCEP) were purchased from Sigma-Aldrich at the highest level of purity possible. ^3H-SAM was purchase from American Radiolabeled Chemicals with a specific activity of 80 Ci/mmol. 384-well streptavidin Flashplates were purchased from PerkinElmer.
Peptide representative of human histone H3 residues 16-30 was synthesized with an N-terminal linker-affinity tag motif and a C-terminal amide cap by 21st Century Biochemicals. The peptide was purified by high-performance liquid chromatography (HPLC) to greater than 95% purity and confirmed by liquid chromatography mass spectrometry (LC-MS). The sequence was Biot-Ahx-[…]-amide and contained a monomethylated arginine at position 26 (SEQ ID NO.:1).
Human CARM1 (PRMT4) (NM_199141.1) transcript clone was amplified from an HEK 293 cDNA library, incorporating a flanking 5′ sequence encoding a FLAG tag ([…]) (SEQ ID NO.:2) fused directly to Ala 2 of CARM1 and 3′ sequence encoding a hexa His sequence ([…]) (SEQ ID NO.:3) fused directly to Ser 608. The gene sequence encoding isoform1 containing a deletion of amino acids 539-561 was amplified subsequently and subcloned into pFastBacMam (Viva Biotech).
Recombinant baculovirus were generated according to Bac-to-Bac kit instructions (Life Technologies). Protein over-expression was accomplished by infecting exponentially growing HEK 293F cell culture at 1.3×10^6 cell/ml with virus (MOI=10) in the presence of 8 mM sodium butyrate. Infections were carried out at 37° C. for 48 hours, harvested by centrifugation, and stored at −80° C. for purification.
Column was washed with 500 mM NaCl in buffer A and Flag-CARM1-His was eluted with 200 ug/ml FLAG peptide in buffer A. Pooled fractions were dialyzed in 20 mM Tris, 150 mM NaCl, 5% glycerol and 1 mM DTT, pH 7.8. The purity of recovered protein was 94.
The assays were all performed in a buffer consisting of 20 mM Bicine (pH=7.6), 1 mM TCEP, 0.005% BSG, and 0.002% Tween 20, prepared on the day of use. Compounds in 100% DMSO (1 ul) were spotted into a polypropylene 384-well V-bottom plates (Greiner) using a Platemate Plus outfitted with a 384-channel head (Thermo Scientific). DMSO (1 ul) was added to Columns 11, 12, 23, 24, rows A-H for the maximum signal control and 1 ul of SAH, a known product and inhibitor of CARM1, was added to columns 11, 12, 23, 24, rows I—P for the minimum signal control. A cocktail (40 ul) containing the CARM1 enzyme was added by Multidrop Combi (Thermo-Fisher). The compounds were allowed to incubate with CARM1 for 30 min at room temperature, then a cocktail (10 ul) containing ^3H-SAM and peptide was added to initiate the reaction (final volume=51 ul). The final concentrations of the components were as follows: CARM1 was 0.25 nM, ^3H-SAM was 30 nM, peptide was 250 nM, SAH in the minimum signal control wells was 1 mM, and the DMSO concentration was 2%. The assays were stopped by the addition of non-radiolabeled SAM (10 ul) to a final concentration of 300 uM, which dilutes the ^3H-SAM to a level where its incorporation into the peptide substrate is no longer detectable. 50 ul of the reaction in the 384-well polypropylene plate was then transferred to a 384-well Flashplate and the biotinylated peptides were allowed to bind to the streptavidin surface for at least 1 hour before being washed once with 0.1% Tween20 in a Biotek ELx405 plate washer. The plates were then read in a PerkinElmer TopCount plate reader to measure the quantity of ^3H-labeled peptide bound to the Flashplate surface, measured as disintegrations per minute (dpm) or alternatively, referred to as counts per minute (cpm).
where dpm=disintegrations per minute, cmpd=signal in assay well, and min and max are the respective minimum and maximum signal controls. […]

[1] = tested on: asymmetric di-methyl PABP1 in RKO cells; assay: RKO methylation assay (In Cell Western for asymmetric di-methyl PABP1); assay type: cell-based; details: 48 hours incubation, read-out: Cellular IC50
Excerpt: RKO adherent cells were purchased from ATCC (American Type Culture Collection), Manassas, Va., USA. DMEM/Glutamax medium, penicillin-streptomycin, heat inactivated fetal bovine serum, 0.05% trypsin and D-PBS were purchased from Life Technologies, Grand Island, N.Y., USA. Odyssey blocking buffer, 800CW goat anti-rabbit IgG (H+L) antibody, and Licor Odyssey infrared scanner were purchased from Licor Biosciences, Lincoln, Nebr., USA. Asymmetric di-methyl PABP1 antibody was purchased from Cell Signaling Technology, Danvers, Mass., USA. Methanol was purchased from VWR, Franklin, Mass., USA. 10% Tween 20 was purchased from KPL, Inc., Gaithersburg, Md., USA. Paraformaldehyde (PFA) was purchased from EM Sciences. DRAQ5 was purchased from Biostatus Limited, Leicestershire, UK.
RKO adherent cells were maintained in growth medium (DMEM/Glutamax medium supplemented with 10% v/v heat inactivated fetal bovine serum and 100 units/mL penicillin-streptomycin) and cultured at 37° C. under 5% CO2.
Compound (100 nL) from a 96-well source plate was added directly to 384 well cell plate. Plates were incubated at 37° C., 5% CO2 for 48 hours. After two days of incubation, plates were brought to room temperature outside of the incubator for ten minutes and blotted on paper towels to remove cell media. Cells were fixed for 20 minutes at room temperature by adding 50 ul of 8% PFA followed by aspiration of supernatant with the Biotek EL406 plate washer. Cells were then permeabilized by addition of 50 μL of ice cold 100% methanol directly to each well and incubated for 30 min at room temperature. After 30 min, plates were transferred to a Biotek EL406 plate washer and washed 2 times with 100 μL per well of wash buffer (IX PBS). Next 60 μL per well of Odyssey blocking buffer (Odyssey Buffer with 0.1% Tween 20 (v/v)) were added to each plate and incubated 1 hour at room temperature. Blocking buffer was removed and 20 μL per well of primary antibody was added (asymmetric-methyl PABP1) diluted 1:400 in Odyssey buffer with 0.1% Tween 20 (v/v)) and plates were incubated overnight (16 hours) at 4° C. Plates were washed 5 times with 100 μL per well of wash buffer. Next 20 μL per well of secondary antibody was added (1:800 800CW goat anti-rabbit IgG (H+L) antibody, 1:2000 DRAQ5 in Odyssey buffer with 0.1% Tween 20 (v/v)) and incubated for 1 hour at room temperature. The plates were washed 5 times with 100 μL per well wash buffer then 2 times with 100 μL per well of water. Plates were allowed to dry at room temperature then imaged on the Licor Odyssey machine which measures integrated intensity at 700 nm and 800 nm wavelengths. Both 700 and 800 channels were scanned.
First, the ratio for each well was determined by:
Each plate included fourteen control wells of DMSO only treatment (minimum inhibition) as well as fourteen control wells for maximum inhibition treated with 20 μM of a reference compound. The average of the ratio values for each control type was calculated and used to determine the percent […] for each test well in the plate. Reference compound was serially diluted three-fold in DMSO for a total of nine test concentrations, beginning at 20 μM.
Percent inhibition was determined and IC50 curves were generated using triplicate wells per concentration of compound.

T1 sequence (Q86X55 other isoform, or with tags, fused parts or gaps): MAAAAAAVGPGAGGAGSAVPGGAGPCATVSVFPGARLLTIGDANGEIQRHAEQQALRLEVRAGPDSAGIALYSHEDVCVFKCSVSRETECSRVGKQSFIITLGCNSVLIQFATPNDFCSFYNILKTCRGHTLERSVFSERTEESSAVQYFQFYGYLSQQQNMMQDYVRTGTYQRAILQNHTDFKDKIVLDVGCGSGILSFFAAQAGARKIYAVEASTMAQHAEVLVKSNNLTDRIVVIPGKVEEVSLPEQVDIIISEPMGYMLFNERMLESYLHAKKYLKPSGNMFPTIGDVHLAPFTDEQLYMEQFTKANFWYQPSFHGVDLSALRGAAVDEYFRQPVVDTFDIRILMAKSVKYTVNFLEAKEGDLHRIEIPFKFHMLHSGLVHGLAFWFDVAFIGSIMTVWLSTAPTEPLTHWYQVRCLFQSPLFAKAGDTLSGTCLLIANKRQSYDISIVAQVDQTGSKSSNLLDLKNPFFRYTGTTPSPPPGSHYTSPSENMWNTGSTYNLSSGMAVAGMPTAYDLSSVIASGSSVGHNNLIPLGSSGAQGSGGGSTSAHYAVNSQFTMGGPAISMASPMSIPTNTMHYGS

Compound | IC50 (Human CARM1 (PRMT4)) | IC50 ([1]; Homo sapiens) | IC50 [1]
CC(C)n1ncc2c(N[C@@H]3CO[C@H]4OCC[C@H]43)cc(-c3cccc(OCC(O)CN)c3)nc21 (stereo partly drawn) [Example 5-8] | < 100 nM | > 20000 nM | –
CNCC(O)COc1cc(OC)cc(-c2cc(-c3cnc4[nH]ccc4c3)c3cnn(C(C)C)c3n2)c1 (stereo not drawn) [Example 5-9] | < 100 nM | > 20000 nM | –
CNCC(O)COc1cccc(-c2cc(N(C)C3CCOCC3)c3c(C)nn(C(C)C)c3n2)c1 (stereo not drawn) [Example 6-2] | < 100 nM | 10000 to 20000 nM | –
CNCC(O)COc1cc(O)cc(-c2cc(N3CCOCC3)c3cnn(C(C)C)c3n2)c1 (stereo not drawn) [Example 6-4] | < 100 nM | > 20000 nM | –
CC(C)n1ncc2c(N3CCOCC3)nc(-c3cccc(OCC(O)CN)c3)nc21 (stereo not drawn) [Example 6-5] | < 100 nM | > 20000 nM | –
CC(C)n1ncc2c(N[C@@H]3CO[C@H]4OCC[C@H]43)cc(-c3cccc(OCC(O)CN)c3)nc21 (stereo partly drawn) [Example 6-8] | < 100 nM | – | > 20000 nM
CNCC(O)COc1cccc(-c2cc(NCc3c(C)cc(C)nc3OC)c3cnn(C(C)C)c3n2)c1 (stereo not drawn) [Example 6-9] | < 100 nM | > 20000 nM | –
CNCC(O)COc1cc(N)cc(-c2cc(NC3CCOCC3)c3cnn(C(C)C)c3n2)c1 (stereo not drawn) [Example 7-4] | < 100 nM | > 20000 nM | –
CC(C)n1ncc2c(NC3CCOC3)nc(-c3cccc(OCC(O)CN)c3)nc21 (stereo not drawn) [Example 7-5] | < 100 nM | > 20000 nM | –
CNCC(O)COc1cccc(-c2cc(N3CCOCC3)n3ncc(C(C)C)c3n2)c1 (stereo not drawn) [Example 7-6] | 100 to 1000 nM | > 20000 nM | –
CC(C)n1ncc2c(N3CCOCC3)cc(-c3cc(F)cc(OCC(O)CN)c3)nc21 (stereo not drawn) [Example 7-8] | < 100 nM | > 20000 nM | –
CNCC(O)COc1cccc(-c2nc(N3CC4CCC(C3)O4)c3cnn(C4CC4)c3n2)c1 (stereo not drawn) [Example 7-9] | < 100 nM | 10000 to 20000 nM | –
CNCC(O)COc1cc(OC)cc(-c2cc(N3CCOCC3)c3cnn(C(C)C)c3n2)c1 (stereo not drawn) [Example 8-4] | < 100 nM | 10000 to 20000 nM | –
CNCC(O)COc1cccc(-c2nc(N3CCOCC3)c3cnn(C(C)C)c3n2)c1 (stereo not drawn) [Example 8-5] | < 100 nM | 10000 to 20000 nM | –
CNC[C@@H](O)COc1cccc(-c2cc(N3CCOCC3)n3ncc(C(C)C)c3n2)c1 [Example 8-6] | < 100 nM | > 20000 nM | –
CNCC(O)COc1cccc(-c2nc(NCc3cnn(C)c3)c3cnn(C(C)(C)C)c3n2)c1 (stereo not drawn) [Example 8-8] | < 100 nM | > 20000 nM | –
CNCC(O)COc1cccc(-c2nc(NCc3nccs3)c3cnn(C4CC4)c3n2)c1 (stereo not drawn) [Example 8-9] | 100 to 1000 nM | 10000 to 20000 nM | –

Further lines, results first:

IC50 (Human CARM1 (PRMT4)) | IC50 ([1]; Homo sapiens) | IC50 [1] | Compound
< 100 nM | > 20000 nM | – | CNCC(O)COc1cc(Cl)cc(-c2cc(NC3CCOC3)c3cnn(C(C)C)c3n2)c1 (stereo not drawn) [Example 9-4]
< 100 nM | > 20000 nM | – | CC(C)(C)n1ncc2c(N3CCOCC3)nc(-c3cccc(OCC(O)CN)c3)nc21 (stereo not drawn) [Example 9-5]
< 100 nM | > 20000 nM | – | CNC[C@H](O)COc1cccc(-c2cc(N3CCOCC3)n3ncc(C(C)C)c3n2)c1 [Example 9-6]
< 100 nM | > 20000 nM | – | CC(C)c1cnn2c(N3CCOCC3)cc(-c3cccc(OC[C@@H](O)CN)c3)nc12 [Example 9-8]
100 to 1000 nM | > 20000 nM | – | CNCC(O)COc1cc(Cl)cc(-c2cc(N(C)C3CCOCC3)n3ncc(C(C)(C)C)c3n2)c1 (stereo not drawn) [Example 9-9]
< 100 nM | > 20000 nM | – | CNCC(O)COc1cc(OC)cc(-c2cc(Nc3cncnc3)c3cnn(C(C)C)c3n2)c1 (stereo not drawn) [Example 10-4]
< 100 nM | 10000 to 20000 nM | – | CNCC(O)COc1cccc(-c2nc(NC3CCOC3)c3cnn(C(C)C)c3n2)c1 (stereo not drawn) [Example 10-5]
< 100 nM | > 20000 nM | – | CNCC(O)COc1cccc(-c2cc(N[C@H]3CCOC3)n3ncc(C(C)C)c3n2)c1 (stereo partly drawn) [Example 10-6]
< 100 nM | > 20000 nM | – | CC(C)c1cnn2c(N3CCOCC3)cc(-c3cccc(OC[C@H](O)CN)c3)nc12 [Example 10-8]
100 to 1000 nM | > 20000 nM | – | CN(c1cc(-c2cccc(OCC(O)CN)c2)nc2c(C(C)(C)C)cnn12)C1CCOCC1 (stereo not drawn) [Example 10-9]
100 to 1000 nM | > 20000 nM | – | CNCC(O)COc1cc(C#N)cc(-c2cc(NC3CCOCC3)c3cnn(C(C)C)c3n2)c1 (stereo not drawn) [Example 11-4]
100 to 1000 nM | > 20000 nM | – | NCC(O)COc1cccc(-c2nc(NCc3cccnc3)c3cnn(C4CC4)c3n2)c1 (stereo not drawn) [Example 11-5]
< 100 nM | > 20000 nM | – | CNCC(O)COc1cccc(-c2cc(N[C@@H]3CCOC3)n3ncc(C(C)C)c3n2)c1 (stereo partly drawn) [Example 11-6]
100 to 1000 nM | > 20000 nM | – | CC(C)c1cnn2c(N(C)C3CCOCC3)cc(-c3cccc(OCC(O)CN)c3)nc12 (stereo not drawn) [Example 11-8]
100 to 1000 nM | > 20000 nM | – | CNCC(O)COc1cccc(-c2cc(NC(=O)NC)c3cnn(C(C)C)c3n2)c1 (stereo not drawn) [Example 11-9]
100 to 1000 nM | > 20000 nM | – | CNCC(O)COc1cc(-c2cc(N3CCOCC3)c3cnn(C(C)C)c3n2)cc(C2CC2)c1 (stereo not drawn) [Example 12-4]
